Experimental findings from BindingDB's records for doi:10.1016/j.bmcl.2004.02.020 (Pfizer, 2004) are described below.

pIC50: −log10 of the molar value. Where only a bound is given, the exact number is not on record here.

For the assay, the target named is T1, C-C chemokine receptor type 1 (Homo sapiens, UniProt P32246).
T1 sequence (P32246 whole entry): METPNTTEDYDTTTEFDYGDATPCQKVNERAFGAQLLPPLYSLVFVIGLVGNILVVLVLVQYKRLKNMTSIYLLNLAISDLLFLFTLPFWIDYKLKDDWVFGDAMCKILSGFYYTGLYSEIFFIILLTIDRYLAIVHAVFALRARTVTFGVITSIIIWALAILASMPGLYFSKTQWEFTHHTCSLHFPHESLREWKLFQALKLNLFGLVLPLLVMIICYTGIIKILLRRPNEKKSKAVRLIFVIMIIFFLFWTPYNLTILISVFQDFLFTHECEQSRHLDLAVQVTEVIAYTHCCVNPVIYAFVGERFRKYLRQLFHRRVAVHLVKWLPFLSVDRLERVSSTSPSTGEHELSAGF
Nature of the assay: Compound was tested for inhibition of CCL3 binding to chemokine receptor-1; inactive at a concentration of 32 uM.
A word on the pIC50: it is −log10 of the IC50, conventionally taken in molar units. The low end stands for a large IC50, the high end for a small IC50. `CNC(=O)CC[C@H](O)[C@H](CC1CCCCC1)NC(=O)c1cnc2ccccc2c1` showed a negative-log IC50 (pIC50) above 4.30.

Take `CNC(=O)[C@@H](CC(C)C)C[C@@H](O)[C@H](CC1CCCCC1)NC(=O)c1cnc2ccccc2c1`: the pIC50 was above 4.30. With `CNC(=O)[C@H](CC(C)C)C[C@@H](O)[C@@H](CC1CCCCC1)NC(=O)c1cnc2ccccc2c1`, the pIC50 is above 4.30.

As for `CC[C@H](C)[C@H](NC(=O)c1cnc2ccccc2c1)[C@@H](O)C[C@@H](CC(C)C)C(=O)NC`, the negative logarithm of the IC50 (pIC50) is above 4.30.

`CNC(=O)[C@H](CC(C)C)C[C@@H](O)[C@H](CC1CCCCC1)NC(=O)c1cnc2ccccc2c1` had a pIC50 above 4.30. Under `CNC(=O)[C@@H](CC(C)C)C[C@H](O)[C@@H](CC1CCCCC1)NC(=O)c1cnc2ccccc2c1` stands above 4.30.
